{"source": "paper PMC9597002", "about": "“The Combination of Individual Herb of Mi-Jian-Chang-Pu Formula Exerts a Synergistic Effect in the Treatment of Ischemic Stroke in Rats” (Oxidative Medicine and Cellular Longevity, 2022)", "key": {"[1]": {"system": "MCAO rats", "experiment": "Brain histopathology by HE staining", "details": "oral once daily 14 days", "experimental": "(§1) 0.5% CMC-Na was used as vehicle with an equal volume (100 g/ml body-weight) for each rat. Treatments were administered once daily by oral gavage for 14 consecutive days. After the last administration, rats were fasted for 12 h, MCAO surgery was performed according to the reference by H Nagasawa and K Kogure. […] After 2 h of sustained MCAO, reperfusion was conducted, and the rats in sham operation group received the same surgical procedures except that the occluding monofilament was not inserted.\nFor brain histology, the tissue was fixed in 4% paraformaldehyde for 24 h, then the brain slices were rinsed, dehydrate, paraffin embedded, sectioned, and stained with hematoxylin-eosin (HE). The histopathological changes were observed under optical microscope."}, "[2]": {"system": "MCAO rats", "experiment": "Neurological deficit score (Longa's five-point scale) 24 h after reperfusion", "details": "oral once daily 14 days, compared with model group", "experimental": "as §1\n24 h after reperfusion, all rats were tested for sensorimotor ability according to the Longa's five-point scale (0, no neurologic deficit; 1, a slight forelimb flexion; 2 severe forelimb flexion and decreased resistance to lateral push; 3, spontaneous rotation or contralateral rotation to the affected side; 4, consciousness reduced and unable or difficult to move; 5, no response to stimulation)."}, "[3]": {"system": "MCAO rats", "experiment": "Infarct volume measurement by TTC staining", "type": "in vivo, Sprague-Dawley rats", "details": "oral once daily 14 days, compared with model group"}}}
{"smiles": "CC(/C=C/C=C(\\C)C(=O)O[C@@H]1O[C@H](CO[C@@H]2O[C@H](CO)[C@@H](O)[C@H](O)[C@H]2O)[C@@H](O)[C@H](O)[C@H]1O)=C\\C=C\\C=C(C)\\C=C\\C=C(/C)C(=O)O[C@@H]1O[C@H](CO[C@@H]2O[C@H](CO)[C@@H](O)[C@H](O)[C@H]2O)[C@@H](O)[C@H](O)[C@H]1O", "note": "[A1, crocin I]", "values": [{"measurement": "Histopathological changes in brain tissue (HE staining)", "setting": "[1]", "value": "protective effect on brain injury"}, {"measurement": "Neurological deficit score", "setting": "[2]", "value": "significant effects"}, {"measurement": "Cerebral infarction volume ratio (TTC staining)", "setting": "[3]", "value": "reduce the infarction volume significantly"}]}
{"smiles": "C/C=C\\c1cc(OC)c(OC)cc1OC", "note": "[B1, β-asarone]", "values": [{"measurement": "Histopathological changes in brain tissue (HE staining)", "setting": "[1]", "value": "protective effect on brain injury"}, {"measurement": "Neurological deficit score", "setting": "[2]", "value": "significant effects"}, {"measurement": "Cerebral infarction volume ratio (TTC staining)", "setting": "[3]", "value": "reduce the infarction volume significantly"}]}
